Results from patent publication US20240246992A1, “MACROCYCLIC LRRK2 KINASE INHIBITORS” (LES LABORATOIRES SERVIER, priority 2021, published 2024).

The molecules below were run against human recombinant LRRK2 protein (Homo sapiens, UniProt Q5S007) (assay: LRRK2 kinase activity assay (ADP-Glo, LRRKtide peptide)). Conditions: human recombinant LRRK2 wt, LRRKtide peptide and ATP, 1 h at 37° C.
Assay type: biochemical
In short: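 Human recombinant LRRK2 reacted with LRRKtide peptide and ATP for 1 h at 37 °C in the presence of compound. ADP formed measured by ADP-Glo luminescence; IC50 fitted from 10 concentrations run in duplicate.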

Chain of human recombinant LRRK2 protein (Q5S007 whole entry): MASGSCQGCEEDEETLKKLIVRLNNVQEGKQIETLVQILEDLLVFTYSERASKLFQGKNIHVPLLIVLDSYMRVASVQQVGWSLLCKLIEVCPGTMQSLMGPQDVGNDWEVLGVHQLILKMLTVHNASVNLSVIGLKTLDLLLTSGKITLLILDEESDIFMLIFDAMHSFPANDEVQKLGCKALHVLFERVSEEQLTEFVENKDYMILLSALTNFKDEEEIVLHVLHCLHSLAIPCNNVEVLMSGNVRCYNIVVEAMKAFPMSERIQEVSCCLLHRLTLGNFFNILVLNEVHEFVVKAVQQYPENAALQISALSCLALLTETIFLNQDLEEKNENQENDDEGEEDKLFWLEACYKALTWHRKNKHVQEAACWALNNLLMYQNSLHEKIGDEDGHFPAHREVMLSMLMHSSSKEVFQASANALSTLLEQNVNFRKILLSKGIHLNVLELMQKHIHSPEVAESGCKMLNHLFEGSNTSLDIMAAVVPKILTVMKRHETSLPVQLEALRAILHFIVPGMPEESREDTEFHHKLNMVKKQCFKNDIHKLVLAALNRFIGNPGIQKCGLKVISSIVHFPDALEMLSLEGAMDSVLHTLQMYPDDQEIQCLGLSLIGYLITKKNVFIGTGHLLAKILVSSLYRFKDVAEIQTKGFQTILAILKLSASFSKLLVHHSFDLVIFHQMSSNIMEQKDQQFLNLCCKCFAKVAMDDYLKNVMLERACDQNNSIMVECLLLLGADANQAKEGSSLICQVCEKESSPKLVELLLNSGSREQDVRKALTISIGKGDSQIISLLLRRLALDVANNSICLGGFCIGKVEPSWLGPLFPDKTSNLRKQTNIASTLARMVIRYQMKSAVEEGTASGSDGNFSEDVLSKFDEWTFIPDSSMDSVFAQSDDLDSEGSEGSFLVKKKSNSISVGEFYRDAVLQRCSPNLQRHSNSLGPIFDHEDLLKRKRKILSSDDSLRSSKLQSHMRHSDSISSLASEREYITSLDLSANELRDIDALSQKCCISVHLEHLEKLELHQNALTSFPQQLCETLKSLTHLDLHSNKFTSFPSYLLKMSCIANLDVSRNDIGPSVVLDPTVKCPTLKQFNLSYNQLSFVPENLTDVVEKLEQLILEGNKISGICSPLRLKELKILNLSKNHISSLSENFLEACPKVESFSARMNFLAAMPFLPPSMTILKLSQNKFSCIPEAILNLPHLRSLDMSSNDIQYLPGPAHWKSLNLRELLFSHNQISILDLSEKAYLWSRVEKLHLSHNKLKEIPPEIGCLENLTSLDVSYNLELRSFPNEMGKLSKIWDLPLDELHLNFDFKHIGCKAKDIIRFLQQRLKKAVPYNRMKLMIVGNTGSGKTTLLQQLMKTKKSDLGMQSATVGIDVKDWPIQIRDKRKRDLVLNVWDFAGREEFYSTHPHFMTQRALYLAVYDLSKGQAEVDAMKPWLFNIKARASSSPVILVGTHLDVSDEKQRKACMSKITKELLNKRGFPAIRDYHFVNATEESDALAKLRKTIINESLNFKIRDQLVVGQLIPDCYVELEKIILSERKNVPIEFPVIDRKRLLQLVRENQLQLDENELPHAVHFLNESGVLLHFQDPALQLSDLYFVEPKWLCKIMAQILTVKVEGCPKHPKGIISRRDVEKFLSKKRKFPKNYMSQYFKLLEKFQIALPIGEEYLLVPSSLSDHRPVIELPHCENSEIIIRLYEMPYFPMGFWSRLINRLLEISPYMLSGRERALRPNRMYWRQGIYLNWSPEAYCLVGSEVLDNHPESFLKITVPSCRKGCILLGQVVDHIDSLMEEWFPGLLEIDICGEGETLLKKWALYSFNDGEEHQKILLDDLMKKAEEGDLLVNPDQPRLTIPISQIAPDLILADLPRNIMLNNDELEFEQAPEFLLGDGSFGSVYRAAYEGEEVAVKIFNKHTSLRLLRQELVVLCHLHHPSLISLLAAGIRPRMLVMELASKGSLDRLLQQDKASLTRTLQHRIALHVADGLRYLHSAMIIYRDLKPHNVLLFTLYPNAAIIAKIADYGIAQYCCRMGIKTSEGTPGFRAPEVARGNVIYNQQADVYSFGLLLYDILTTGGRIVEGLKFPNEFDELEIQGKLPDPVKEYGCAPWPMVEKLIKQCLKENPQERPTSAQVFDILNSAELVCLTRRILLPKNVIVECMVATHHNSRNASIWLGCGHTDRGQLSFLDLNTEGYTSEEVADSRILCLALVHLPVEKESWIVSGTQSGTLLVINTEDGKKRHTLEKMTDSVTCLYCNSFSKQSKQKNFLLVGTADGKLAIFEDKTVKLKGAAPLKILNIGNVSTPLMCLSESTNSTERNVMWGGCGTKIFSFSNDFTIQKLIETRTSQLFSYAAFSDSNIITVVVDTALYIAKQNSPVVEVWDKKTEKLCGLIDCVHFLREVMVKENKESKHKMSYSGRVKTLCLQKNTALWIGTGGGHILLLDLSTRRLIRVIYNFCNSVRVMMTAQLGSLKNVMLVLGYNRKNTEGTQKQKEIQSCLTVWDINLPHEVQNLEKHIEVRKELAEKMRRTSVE

Row | Structure (SMILES) | IC50 [nM]
1 | CC1CNCCCOc2ccc3[nH]nc(c3c2)-c2cc(cc(N3CCOCC3)c2)O1 (single isomer, unassigned) [Example 178, (8R) or (8S)-8-methyl-4-(morpholin-4-yl)-7,14-dioxa-10,19,20-triazatetracyclo[13.5.2.1^2,6.0^18,21]tricosa-1(20),2,4,6(23),15,17,21-heptaene] | < 10
2 | COC1CNC(=O)COc2cccc(c2)-c2n[nH]c3ccc(cc23)OC1 (stereo not shown) [Example 170, 12-methoxy-7,14-dioxa-10,19,20-triazatetracyclo[13.5.2.1^2,6.0^18,21]tricosa-1(20),2(23),3,5,15,17,21-heptaen-9-one] | < 100
3 | CC1CNCCCOc2ccc3[nH]nc(c3c2)-c2cc(cc(N3CCOCC3)c2)O1 (single isomer, unassigned) [Example 177, (8R) or (8S)-8-methyl-4-(morpholin-4-yl)-7,14-dioxa-10,19,20-triazatetracyclo[13.5.2.1^2,6.0^18,21]tricosa-1(20),2,4,6(23),15,17,21-heptaene] | < 10
4 | c1cc2[nH]nc3c2cc1OCCCOCCCn1cc-3cn1 [Example 5, 9,13-dioxa-4,5,18,19-tetraazatetracyclo[12.5.2.1^2,5.0^17,20] docosa-1(19),2(22),3,14(21),15,17(20)-hexaene] | < 10
5 | O=C1COc2cc(cc(N3CCC(F)(F)C3)c2)-c2n[nH]c3ccc(cc23)OCCCN1 [Example 206, 4-(3,3-difluoropyrrolidin-1-yl)-7,14-dioxa-10,19,20-triazatetracyclo[13.5.2.1^2,6.0^18,21]tricosa-1(20),2(23),3,5,15,17,21-heptaen-9-one] | < 10
6 | O=C1COc2cc(cc(N3CCNCC3)c2)-c2n[nH]c3ccc(cc23)OCCCN1 [Example 212, 4-(piperazin-1-yl)-7,14-dioxa-10,19,20-triazatetracyclo [13.5.2.1^2,6.0^18,21]tricosa-1(20),2(23),3,5,15,17,21-heptaen-9-one] | < 10

Other lines, results leading:

Row | IC50 [nM] | Structure (SMILES)
7 | < 100 | C[C@H]1COc2nccc(n2)-c2n[nH]c3ccc(cc23)O[C@@H](C)CCO1 [Example 59, (9S,13S)-9,13-dimethyl-7,10,14-trioxa-5,19,20,23-tetraazatetracyclo [13.5.2.1^2,6.0^18,21]tricosa-1(20),2(23),3,5,15(22),16,18(21)-heptaene]
8 | < 10 | C[C@@H]1CCOCCOCCn2cc(cn2)-c2n[nH]c3ccc(cc23)O1 [Example 131, (14R)-14-methyl-8,11,15-trioxa-4,5,20,21-tetraazatetracyclo[14.5.2.1^2,5.0^19,22]tetracosa-1(21),2(24),3,16(23),17,19(22)-hexaene]
9 | < 1000 | CN1CCCOc2ccc3[nH]nc(c3c2)-c2cc(ccn2)OCC1=O [Example 194, 10-methyl-7,14-dioxa-3,10,19,20-tetraazatetracyclo[13.5.2.1^2,6.0^18,21]tricosa-1(20),2(23),3,5,15(22),16,18(21)-heptaen-9-one]
10 | < 10 | [2H]C1([2H])OCCn2cc(cn2)-c2n[nH]c3ccc(cc23)OC[C@H](C)OC1([2H])[2H] [Example 107, (12S)-12-methyl(9,9,10,10-^2H4)-8,11,14-trioxa-4,5,19,20-tetraazatetracyclo [13.5.2.1^2,5.0^18,21]tricosa-1(20),2(23),3,15,17,21-hexaene]
11 | < 100 | C[C@@H]1CCN(C)C(=O)C[C@H](C)n2ncc(n2)-c2n[nH]c3ccc(cc23)O1 [Example 243]
12 | < 10 | C[C@@H]1OCCOCCn2cc(cn2)-c2n[nH]c3ccc(cc23)O[C@H]1C [Example 114, (12S,13S)-12,13-dimethyl-8,11,14-trioxa-4,5,19,20-tetraazatetracyclo [13.5.2.1^2,5.0^18,21]tricosa-1(20),2(23),3,15(22),16,18(21)-hexaene]
13 | < 10 | C[C@H]1COc2ccc3[nH]nc(c3c2)-c2cnn(c2)[C@@H](C)COCCO1 [Example 89, (6S,12S)-6,12-dimethyl-8,11,14-trioxa-4,5,19,20-tetraazatetracyclo [13.5.2.1^2,5.0^18,21]tricosa-1(20),2(23),3,15(22),16,18(21)-hexaene]
